In US4122034A, “Antimicrobial compositions” (Schering Corporation, priority 1975, dated 1978):
In brackets after ≈: the same amount, converted by molar mass.

What was measured:
Bacteroides corrodens = test: In vitro activity against anaerobes in fluid Thioglycollate medium (Table II); assay type: cell-based; conditions: Eikenella corrodens
Experimental: (§1) All the tests were carried out and (when necessary) scored under standard conditions. "MIC" means "minimum inhibitory concentration."
(§2) In vitro activity of 2-aminoalkyl-3-phenylindoles of the formula I
(§3) against anaerobes in fluid Thioglycollate medium

Bacteroides fragilis = test: as above; assay type: cell-based
Experimental: as §1, §2, §3

[1] = system: Bacteroides melaninogenicus; test: as above; assay type: cell-based
Experimental: as §1, §2, §3

Peptostreptococcus = test: as above; assay type: cell-based
Experimental: as §1, §2, §3

Eubacterium lentum = test: as above; assay type: cell-based; conditions: Eggerthella lenta
Experimental: as §1, §2, §3

Clostridium novyi = test: as above; assay type: cell-based
Experimental: as §1, §2, §3

Clostridium septicum = test: as above; assay type: cell-based
Experimental: as §1, §2, §3

Clostridium histolyticum = test: as above; assay type: cell-based; conditions: Hathewaya histolytica
Experimental: as §1, §2, §3

Trychomonas vaginalis = test: In vitro Anti-Trichomonal activity (Table VII); assay type: cell-based
Experimental: as §1
In vitro Anti-Trichomonal Activity of some 2-aminoalkyl-3-
phenyl-indenes of formula II.

[2] = Acute toxicity in mice (Table V); conditions: mouse, in vivo
Experimental: as §1
Acute Toxicity of 2-aminoalkyl-3-phenylindoles of the formula I

Epidermophyton floccosum = test: In vitro antifungal activity, dilutions in Sabouraud's Dextrose Broth (Table IV); assay type: cell-based; conditions: after 96 hours
Experimental: as §1
(§4) In vitro Antifungal Activity of 2-amioalkyl-3-phenylindoles
(§5) of the formula I against Dermetophytes and Aspergillus.
(§6) Dilutions in Sabouraud's Dextrose Broth.

Trichophyton soudenense = test: as above; assay type: cell-based; conditions: after 96 hours
Experimental: as §1, §4, §5, §6

Trichophyton gallinae = test: as above; assay type: cell-based; conditions: after 96 hours
Experimental: as §1, §4, §5, §6

Trichophyton ascoides = test: as above; assay type: cell-based; conditions: after 96 hours
Experimental: as §1, §4, §5, §6

Microsporum distortum = test: as above; assay type: cell-based; conditions: after 96 hours
Experimental: as §1, §4, §5, §6

Trichophyton megninii = test: as above; assay type: cell-based; conditions: Trichophyton rubrum; after 96 hours
Experimental: as §1, §4, §5, §6

Microsporum nanum = test: as above; assay type: cell-based; conditions: Nannizzia nana; after 96 hours
Experimental: as §1, §4, §5, §6

[3] = system: Trichophyton mentagrophytes; test: as above; assay type: cell-based; conditions: 96 h
Experimental: as §1, §4, §5, §6

Tricoderm sp. = test: as above; assay type: cell-based; conditions: after 96 hours
Experimental: as §1, §4, §5, §6

[4] = system: Trichophyton schoenleinii; test: as above; assay type: cell-based; conditions: 96 h
Experimental: as §1, §4, §5, §6

Aspergillus sp. No. 3 = test: as above; assay type: cell-based; conditions: after 96 hours
Experimental: as §1, §4, §5, §6

Trichophyton discoides = test: as above; assay type: cell-based; conditions: after 96 hours
Experimental: as §1, §4, §5, §6

Trichophyton tonsurans = test: as above; assay type: cell-based; conditions: after 96 hours
Experimental: as §1, §4, §5, §6

Aspergillus niger 6275 = test: as above; assay type: cell-based; conditions: after 96 hours
Experimental: as §1, §4, §5, §6

Trichophyton rubrum = test: as above; assay type: cell-based; conditions: 96 h
Experimental: as §1, §4, §5, §6

Trichophyton ferrugineum = test: as above; assay type: cell-based; conditions: Microsporum ferrugineum; after 96 hours
Experimental: as §1, §4, §5, §6

Candida albicans = test: In vitro Anti-Candida activity, dilutions in Sabouraud's Dextrose Agar (Table III); assay type: cell-based; conditions: 48 h
Experimental: as §1
In vitro Anti-Candida Activity of 2-aminoalkyl-3-phenyl-
indoles of the formula I. Dilutions in Sabouraud's Dextrose
MIC (mcg/ml) after 48 hours

T. mentagrophytes = test: Effect against topical T. mentagrophytes infections in guinea pigs (Table VI); assay type: in vivo; set-up: Average Sum of lesion scores, Days 1-5 / Average Sum of lesion scores, Days 1-10: scale not given here; conditions: for Average Sum of lesion scores, Days 1-5: untreated controls 14.8; for Average Sum of lesion scores, Days 1-10: untreated controls 38.2
Experimental: as §1
Effect of some 2-aminoalkyl-3-phenylindoles of the formula II
against topical T. mentagrophytes infections in guinea pigs.

Enterococcus = test: In vitro antibacterial activity, dilution in Mueller Hinton Agar (Table I); assay type: cell-based
Experimental: as §1
In vitro Antibacterial Activity of 2-aminoalkyl-3-phenyl-
indoles of the formula I. Dilution in Mueller Hinton Agar pH 7.4

With `NCc1[nH]c2ccc(Cl)cc2c1-c1c(F)cccc1F` [B, 2-aminomethyl-5-chloro-3-(2,6-difluorophenyl)indole] the MIC (Bacteroides corrodens; 48 hrs) was 7.5 mg/L (≈ 25.6 µM), the MIC (Bacteroides corrodens; 72 hrs) was 7.5 mg/L (≈ 25.6 µM) and the MIC (Bacteroides fragilis; 48 hrs) was 3 mg/L (≈ 10.2 µM). The MIC (Bacteroides fragilis; 72 hrs) was 3 mg/L (≈ 10.2 µM), the MIC ([1]; 48 hrs) was 7.5 mg/L (≈ 25.6 µM) and the MIC ([1]; 72 hrs) was 17.5 mg/L (≈ 59.8 µM). For the same compound, the MIC (Peptostreptococcus; 48 hrs) was 3 mg/L (≈ 10.2 µM), the MIC (Peptostreptococcus; 72 hrs) was 3 mg/L (≈ 10.2 µM) and the MIC (Eubacterium lentum; 48 hrs) was 17.5 mg/L (≈ 59.8 µM). For the same compound, the MIC (Eubacterium lentum; 72 hrs) was 17.5 mg/L (≈ 59.8 µM), the MIC (Clostridium novyi; 48 hrs) was 7.5 mg/L (≈ 25.6 µM) and the MIC (Clostridium novyi; 72 hrs) was 7.5 mg/L (≈ 25.6 µM). It also gave an MIC (Clostridium septicum; 48 hrs) of 3 mg/L (≈ 10.2 µM), an MIC (Clostridium septicum; 72 hrs) of 3 mg/L (≈ 10.2 µM) and an MIC (Clostridium histolyticum; 48 hrs) of 7.5 mg/L (≈ 25.6 µM). It also gave an MIC (Clostridium histolyticum; 72 hrs) of 7.5 mg/L (≈ 25.6 µM), an IC50 (Trychomonas vaginalis; 50% suppression, read-out: Minimal Level to Produce 50% Suppression) of 32 mg/L (≈ 109 µM) and an IC90 (Trychomonas vaginalis; 90% suppression, read-out: Minimal Level to Produce 90% Suppression) of 75 mg/L (≈ 256 µM). It also gave an LD50 ([2]; Oral) of ~1000 mg/kg, an LD50 ([2]; ip, I.P.) of 225 mg/kg and an LD50 ([2]; sc, S.C.) of 900 mg/kg. It also gave an MIC (Epidermophyton floccosum) of 17.5 mg/L (≈ 59.8 µM), an MIC (Trichophyton soudenense) of 17.5 mg/L (≈ 59.8 µM) and an MIC (Trichophyton gallinae) of 7.5 mg/L (≈ 25.6 µM). For the same compound, the MIC (Trichophyton ascoides) was 17.5 mg/L (≈ 59.8 µM), the MIC (Microsporum distortum) was 17.5 mg/L (≈ 59.8 µM) and the MIC (Trichophyton megninii) was 7.5 mg/L (≈ 25.6 µM). For the same compound, the MIC (Microsporum nanum) was 17.5 mg/L (≈ 59.8 µM), the MIC ([3]; strain A, after 96 hours) was 7.5 mg/L (≈ 25.6 µM) and the MIC ([3]; strain B, after 96 hours) was 7.5 mg/L (≈ 25.6 µM). The MIC ([3]; strain C, after 96 hours) was 7.5 mg/L (≈ 25.6 µM), the MIC ([3]; strain H377, after 96 hours) was 17.5 mg/L (≈ 59.8 µM) and the MIC ([3]; strain Young, after 96 hours) was 7.5 mg/L (≈ 25.6 µM). For the same compound, the MIC (Tricoderm sp.) was 7.5 mg/L (≈ 25.6 µM), the MIC ([4]; strain 2, after 96 hours) was 7.5 mg/L (≈ 25.6 µM) and the MIC ([4]; strain not given, after 96 hours) was 17.5 mg/L (≈ 59.8 µM). The MIC (Aspergillus sp. No. 3) was 37.5 mg/L (≈ 128 µM), the MIC (Trichophyton discoides) was 17.5 mg/L (≈ 59.8 µM) and the MIC (Trichophyton tonsurans) was 200 mg/L (≈ 683 µM). For the same compound, the MIC (Aspergillus niger 6275) was 37.5 mg/L (≈ 128 µM), the MIC (Trichophyton rubrum; strain 3, after 96 hours) was 17.5 mg/L (≈ 59.8 µM) and the MIC (Trichophyton rubrum; strain 360, after 96 hours) was 17.5 mg/L (≈ 59.8 µM). It also gave an MIC (Trichophyton rubrum; strain Blehl, after 96 hours) of 17.5 mg/L (≈ 59.8 µM), an MIC (Trichophyton rubrum; strain Haggerty, after 96 hours) of 17.5 mg/L (≈ 59.8 µM) and an MIC (Trichophyton ferrugineum) of 37.5 mg/L (≈ 128 µM). The MIC (Candida albicans; strain 1, after 48 hours) was 150 mg/L (≈ 512 µM), the MIC (Candida albicans; strain 2, after 48 hours) was 75 mg/L (≈ 256 µM) and the MIC (Candida albicans; strain 3, after 48 hours) was 150 mg/L (≈ 512 µM). The MIC (Candida albicans; strain 4, after 48 hours) was 75 mg/L (≈ 256 µM), the MIC (Candida albicans; strain 5, after 48 hours) was 75 mg/L (≈ 256 µM) and the MIC (Candida albicans; strain 6, after 48 hours) was 150 mg/L (≈ 512 µM). The MIC (Candida albicans; strain 8, after 48 hours) was 150 mg/L (≈ 512 µM), the MIC (Candida albicans; strain 9, after 48 hours) was 75 mg/L (≈ 256 µM) and the MIC (Candida albicans; strain 29, after 48 hours) was 75 mg/L (≈ 256 µM). For the same compound, the MIC (Candida albicans; strain Atkisson, after 48 hours) was 75 mg/L (≈ 256 µM), the MIC (Candida albicans; strain Bertrand, after 48 hours) was 150 mg/L (≈ 512 µM) and the MIC (Candida albicans; strain Bevan, after 48 hours) was 150 mg/L (≈ 512 µM). It also gave an MIC (Candida albicans; strain Blunden, after 48 hours) of 75 mg/L (≈ 256 µM), an MIC (Candida albicans; strain Bognay, after 48 hours) of 75 mg/L (≈ 256 µM) and an MIC (Candida albicans; strain Boyer, after 48 hours) of 150 mg/L (≈ 512 µM). The MIC (Candida albicans; strain Burke, after 48 hours) was 75 mg/L (≈ 256 µM), the MIC (Candida albicans; strain Burnside, after 48 hours) was 150 mg/L (≈ 512 µM) and the MIC (Candida albicans; strain Collins, after 48 hours) was 75 mg/L (≈ 256 µM). For the same compound, the MIC (Candida albicans; strain Fix, after 48 hours) was 75 mg/L (≈ 256 µM), the MIC (Candida albicans; strain Frazier, after 48 hours) was 150 mg/L (≈ 512 µM) and the MIC (Candida albicans; strain Fulcher, after 48 hours) was 75 mg/L (≈ 256 µM). It also gave an MIC (Candida albicans; strain Gay, after 48 hours) of 150 mg/L (≈ 512 µM), an MIC (Candida albicans; strain Hons, after 48 hours) of 150 mg/L (≈ 512 µM) and an MIC (Candida albicans; strain Johnson, after 48 hours) of 150 mg/L (≈ 512 µM). The MIC (Candida albicans; strain Kenndy 2, after 48 hours) was 150 mg/L (≈ 512 µM), the MIC (Candida albicans; strain Kennedy 1, after 48 hours) was 75 mg/L (≈ 256 µM) and the MIC (Candida albicans; strain Lehtman, after 48 hours) was 150 mg/L (≈ 512 µM). For the same compound, the MIC (Candida albicans; strain Lusk, after 48 hours) was 75 mg/L (≈ 256 µM), the MIC (Candida albicans; strain Merkel, after 48 hours) was 75 mg/L (≈ 256 µM) and the MIC (Candida albicans; strain Newcomb, after 48 hours) was 37.5 mg/L (≈ 128 µM). For the same compound, the MIC (Candida albicans; strain Sherod, after 48 hours) was 150 mg/L (≈ 512 µM), the MIC (Candida albicans; strain Shurelli, after 48 hours) was 150 mg/L (≈ 512 µM) and the MIC (Candida albicans; strain Sparks, after 48 hours) was 150 mg/L (≈ 512 µM). The MIC (Candida albicans; strain Tyner, after 48 hours) was 150 mg/L (≈ 512 µM), the “Average No. of Days to become negative, Cultures” value (T. mentagrophytes; concentration 1%) was 9.6 days and the “Average No. of Days to become negative, Lesion” value (T. mentagrophytes; concentration 1%) was 14.2 days. For the same compound, the “Average Sum of lesion scores, Days 1-5” value (T. mentagrophytes; concentration 1%) was 11.6, the “Average Sum of lesion scores, Days 1-10” value (T. mentagrophytes; concentration 1%) was 20.0 and the “Average No. of Days to become negative, Cultures” value (T. mentagrophytes; concentration 4%) was 5.0 days. For the same compound, the “Average No. of Days to become negative, Lesion” value (T. mentagrophytes; concentration 4%) was 7.2 days, the “Average Sum of lesion scores, Days 1-5” value (T. mentagrophytes; concentration 4%) was 9.2 and the “Average Sum of lesion scores, Days 1-10” value (T. mentagrophytes; concentration 4%) was 10.0. For the same compound, the MIC (Enterococcus; pH 7.4, strain 373, Mueller Hinton Agar pH 7.4) was 7.5 mg/L (≈ 25.6 µM) and the MIC (Enterococcus; pH 7.4, strain 0928/72, Mueller Hinton Agar pH 7.4) was 17.5 mg/L (≈ 59.8 µM).
